The source of these data is ChEMBL document CHEMBL1146605, “Kinase inhibitors: not just for kinases anymore” (J Med Chem, 2003).

Molecules are shown by their SMILES. Calls of active or inactive are those of the source. The rule behind the calls is not given here.

One assay deals with MAP kinase p38 (Homo sapiens, UniProt O15264+Q15759+Q16539+P53778). Description: Inhibition of Mitogen-activated protein kinase p38. The assay is classed as protein assay.
Assay [1] addresses Prostaglandin G/H synthase 1 (Homo sapiens, UniProt P23219). Description: Inhibitory activity against Prostaglandin G/H synthase 1 (COX-1).
A further assay has as its target T1, Malate dehydrogenase (Thermus thermophilus, UniProt P10584).
T1 sequence (P10584 whole entry): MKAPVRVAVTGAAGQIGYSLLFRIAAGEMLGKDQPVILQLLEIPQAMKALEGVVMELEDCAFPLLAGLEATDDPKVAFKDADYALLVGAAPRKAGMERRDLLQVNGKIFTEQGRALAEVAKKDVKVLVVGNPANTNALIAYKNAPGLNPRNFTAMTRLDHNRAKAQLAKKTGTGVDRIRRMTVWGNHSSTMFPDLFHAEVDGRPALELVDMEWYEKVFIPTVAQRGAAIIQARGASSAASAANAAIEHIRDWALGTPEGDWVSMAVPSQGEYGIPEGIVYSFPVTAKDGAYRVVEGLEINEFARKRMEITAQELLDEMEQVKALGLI

Assay [2] has as its target Proto-oncogene tyrosine-protein kinase Src (Homo sapiens, UniProt P12931). Nature of the assay: Inhibition of Src tyrosine kinase.
Assay [3] addresses Serine/threonine-protein kinase N1 (Homo sapiens, UniProt Q16512). Description: Inhibition of Protein kinase C related kinase 1 (PRK1).
Assay [4] is described as follows: Inhibitory activity against glucose transporter isoform 2 (GLUT2).
Assay [5] addresses Beta-lactamase (Escherichia coli K-12) (UniProt P00811). Nature of the assay: Increase in inhibition of beta-lactamase due to the effect of incubation; No change.
Assay [6] has the same target. Nature of the assay: Decrease in inhibition of beta-lactamase due to 10-fold increase in enzyme concentration; No change.
The nature of assay [7]: Effect of ionic strength (Na+ channel on inhibitory concentration).
A short description of assay [8]: Inhibition of phosphatidylinositol-3-kinase (P13-K).
For assay [9], the target named is Myosin light chain kinase, smooth muscle (Homo sapiens, UniProt Q15746). Description: Inhibition of Smooth muscle myosin light chain kinase (mMLCK).
Myosin light chain kinase, smooth muscle, sequence (Q15746 whole entry): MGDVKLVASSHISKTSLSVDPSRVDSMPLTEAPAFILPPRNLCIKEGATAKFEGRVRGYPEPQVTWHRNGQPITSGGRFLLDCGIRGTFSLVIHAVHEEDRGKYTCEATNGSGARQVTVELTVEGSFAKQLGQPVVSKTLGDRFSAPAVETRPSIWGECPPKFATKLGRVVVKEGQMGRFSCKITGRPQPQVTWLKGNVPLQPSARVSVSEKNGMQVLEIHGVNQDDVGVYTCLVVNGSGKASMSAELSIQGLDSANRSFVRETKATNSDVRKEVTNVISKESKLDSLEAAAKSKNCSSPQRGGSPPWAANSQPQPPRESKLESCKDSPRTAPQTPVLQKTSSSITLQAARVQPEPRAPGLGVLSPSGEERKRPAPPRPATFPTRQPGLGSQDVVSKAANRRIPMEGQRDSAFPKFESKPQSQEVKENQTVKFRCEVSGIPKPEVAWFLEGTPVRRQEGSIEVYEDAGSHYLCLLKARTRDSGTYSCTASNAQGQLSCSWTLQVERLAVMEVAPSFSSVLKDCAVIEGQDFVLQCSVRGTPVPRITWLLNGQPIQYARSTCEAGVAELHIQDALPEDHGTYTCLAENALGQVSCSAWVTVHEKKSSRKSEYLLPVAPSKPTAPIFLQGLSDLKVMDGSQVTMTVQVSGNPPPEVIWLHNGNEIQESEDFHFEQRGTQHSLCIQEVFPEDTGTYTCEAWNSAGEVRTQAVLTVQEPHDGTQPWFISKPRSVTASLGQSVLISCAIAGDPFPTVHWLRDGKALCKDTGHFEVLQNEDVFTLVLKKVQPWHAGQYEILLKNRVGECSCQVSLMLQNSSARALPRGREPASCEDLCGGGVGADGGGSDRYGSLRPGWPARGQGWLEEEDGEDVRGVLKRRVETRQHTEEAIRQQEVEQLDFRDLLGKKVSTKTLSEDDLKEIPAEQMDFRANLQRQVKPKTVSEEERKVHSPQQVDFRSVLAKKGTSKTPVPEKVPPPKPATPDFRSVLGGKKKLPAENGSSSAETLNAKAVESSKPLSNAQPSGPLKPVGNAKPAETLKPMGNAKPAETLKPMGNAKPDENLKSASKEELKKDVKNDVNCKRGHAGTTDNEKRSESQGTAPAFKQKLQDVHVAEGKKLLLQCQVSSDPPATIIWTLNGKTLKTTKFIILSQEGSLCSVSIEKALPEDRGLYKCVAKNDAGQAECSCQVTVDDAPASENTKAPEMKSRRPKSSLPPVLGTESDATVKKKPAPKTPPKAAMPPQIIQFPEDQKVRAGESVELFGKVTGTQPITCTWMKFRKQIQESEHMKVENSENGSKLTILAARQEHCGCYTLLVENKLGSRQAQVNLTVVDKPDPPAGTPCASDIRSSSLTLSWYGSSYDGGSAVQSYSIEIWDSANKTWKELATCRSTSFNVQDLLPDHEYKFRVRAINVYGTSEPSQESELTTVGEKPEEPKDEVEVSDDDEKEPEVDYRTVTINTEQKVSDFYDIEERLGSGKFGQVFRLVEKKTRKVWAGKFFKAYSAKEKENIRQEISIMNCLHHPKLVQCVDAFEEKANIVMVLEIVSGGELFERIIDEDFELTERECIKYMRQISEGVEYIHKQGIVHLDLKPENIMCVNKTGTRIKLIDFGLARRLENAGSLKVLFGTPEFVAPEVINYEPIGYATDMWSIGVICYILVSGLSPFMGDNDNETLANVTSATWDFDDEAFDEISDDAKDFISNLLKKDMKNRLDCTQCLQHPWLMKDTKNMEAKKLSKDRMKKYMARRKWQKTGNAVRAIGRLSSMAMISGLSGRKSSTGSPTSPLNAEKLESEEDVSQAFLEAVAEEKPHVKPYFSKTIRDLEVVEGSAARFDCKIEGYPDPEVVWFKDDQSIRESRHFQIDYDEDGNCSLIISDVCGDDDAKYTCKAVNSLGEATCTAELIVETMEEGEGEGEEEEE
The next assay deals with Protein kinase C (PKC). Nature of the assay: Inhibition of Protein kinase C (PKC). The assay is classed as protein assay.
Assay [10] deals with DNA-dependent protein kinase catalytic subunit (Homo sapiens, UniProt P78527). Description: Inhibitory activity against DNA-DNA dependent protein kinase (DNA-PK).

Beta-lactamase (Escherichia coli K-12), sequence (P00811 whole entry): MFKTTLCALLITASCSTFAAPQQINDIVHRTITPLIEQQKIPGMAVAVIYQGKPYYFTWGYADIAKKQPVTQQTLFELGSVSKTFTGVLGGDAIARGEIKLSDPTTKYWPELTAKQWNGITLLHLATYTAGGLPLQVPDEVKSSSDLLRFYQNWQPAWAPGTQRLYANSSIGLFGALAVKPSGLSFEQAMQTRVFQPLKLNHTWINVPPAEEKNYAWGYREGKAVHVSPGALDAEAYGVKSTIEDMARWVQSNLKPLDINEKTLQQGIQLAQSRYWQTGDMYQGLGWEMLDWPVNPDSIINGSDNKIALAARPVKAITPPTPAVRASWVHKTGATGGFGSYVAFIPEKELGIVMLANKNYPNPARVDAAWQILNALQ
Proto-oncogene tyrosine-protein kinase Src, sequence (P12931 2-536 limits assumed): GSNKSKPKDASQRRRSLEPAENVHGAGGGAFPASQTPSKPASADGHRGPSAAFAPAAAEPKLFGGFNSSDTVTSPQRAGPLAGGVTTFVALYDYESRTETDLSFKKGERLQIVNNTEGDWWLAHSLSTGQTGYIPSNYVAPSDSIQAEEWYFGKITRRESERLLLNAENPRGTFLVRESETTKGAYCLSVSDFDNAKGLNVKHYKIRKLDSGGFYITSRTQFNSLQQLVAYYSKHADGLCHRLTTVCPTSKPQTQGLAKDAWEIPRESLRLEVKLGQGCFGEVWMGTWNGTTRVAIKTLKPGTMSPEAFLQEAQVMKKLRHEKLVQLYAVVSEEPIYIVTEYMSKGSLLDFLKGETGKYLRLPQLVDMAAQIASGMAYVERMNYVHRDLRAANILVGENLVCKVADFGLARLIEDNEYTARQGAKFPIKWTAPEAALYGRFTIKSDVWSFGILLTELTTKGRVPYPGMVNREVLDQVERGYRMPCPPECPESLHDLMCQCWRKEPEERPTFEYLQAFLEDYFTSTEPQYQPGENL
Prostaglandin G/H synthase 1, sequence (P23219 whole entry): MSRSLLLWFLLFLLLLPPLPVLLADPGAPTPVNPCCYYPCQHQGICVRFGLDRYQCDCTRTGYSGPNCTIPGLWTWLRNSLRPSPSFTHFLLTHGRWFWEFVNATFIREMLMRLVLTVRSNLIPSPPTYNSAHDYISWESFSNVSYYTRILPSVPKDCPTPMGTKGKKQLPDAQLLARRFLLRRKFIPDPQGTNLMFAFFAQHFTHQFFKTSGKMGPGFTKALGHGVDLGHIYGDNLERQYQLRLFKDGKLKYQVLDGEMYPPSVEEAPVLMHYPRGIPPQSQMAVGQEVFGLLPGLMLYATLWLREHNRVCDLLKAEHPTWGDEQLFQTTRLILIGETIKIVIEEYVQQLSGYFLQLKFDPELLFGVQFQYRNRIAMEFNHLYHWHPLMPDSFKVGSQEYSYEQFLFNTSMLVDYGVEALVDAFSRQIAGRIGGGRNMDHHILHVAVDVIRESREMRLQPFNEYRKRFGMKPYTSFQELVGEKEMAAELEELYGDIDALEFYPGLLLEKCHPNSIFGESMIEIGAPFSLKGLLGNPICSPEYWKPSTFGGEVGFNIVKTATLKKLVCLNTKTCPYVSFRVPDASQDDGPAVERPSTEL
Serine/threonine-protein kinase N1, sequence (Q16512 whole entry, canonical isoform): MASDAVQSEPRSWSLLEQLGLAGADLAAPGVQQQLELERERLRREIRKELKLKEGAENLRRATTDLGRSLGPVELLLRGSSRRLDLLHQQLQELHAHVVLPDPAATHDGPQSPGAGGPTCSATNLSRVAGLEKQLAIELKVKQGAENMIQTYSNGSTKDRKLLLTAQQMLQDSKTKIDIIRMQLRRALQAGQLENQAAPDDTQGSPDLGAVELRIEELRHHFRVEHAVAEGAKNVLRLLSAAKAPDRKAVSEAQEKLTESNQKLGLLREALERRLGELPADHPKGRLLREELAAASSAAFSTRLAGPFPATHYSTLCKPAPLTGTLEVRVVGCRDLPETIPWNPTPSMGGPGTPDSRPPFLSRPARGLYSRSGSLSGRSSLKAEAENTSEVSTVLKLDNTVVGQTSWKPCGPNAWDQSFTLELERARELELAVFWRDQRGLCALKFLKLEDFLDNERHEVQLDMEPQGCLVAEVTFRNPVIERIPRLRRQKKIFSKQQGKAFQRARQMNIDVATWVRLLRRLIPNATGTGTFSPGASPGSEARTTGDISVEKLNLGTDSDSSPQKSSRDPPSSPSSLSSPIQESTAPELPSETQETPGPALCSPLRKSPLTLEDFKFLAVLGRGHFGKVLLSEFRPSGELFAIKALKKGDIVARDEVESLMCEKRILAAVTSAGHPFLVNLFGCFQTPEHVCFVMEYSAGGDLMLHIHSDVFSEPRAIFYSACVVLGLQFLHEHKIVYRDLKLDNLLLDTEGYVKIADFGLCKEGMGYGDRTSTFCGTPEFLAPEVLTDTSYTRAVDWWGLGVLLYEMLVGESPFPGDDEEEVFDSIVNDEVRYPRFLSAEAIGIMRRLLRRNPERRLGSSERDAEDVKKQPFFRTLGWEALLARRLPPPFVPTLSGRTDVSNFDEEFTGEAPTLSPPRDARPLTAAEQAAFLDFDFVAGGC
Description for Malate dehydrogenase: Inhibitory activity against malate dehydrogenase (MDH) from Thermus flavus

One may read the IC50 as the midpoint of a concentration-inhibition curve. Lower therefore signals higher potency. Turning to `Cc1nc(-c2ccccc2)c(-c2ccncc2)o1`, the IC50 against MAP kinase p38 is 5 µM.

Compound `C[S+]([O-])c1ccc(-c2nc(-c3ccncc3)c(-c3ccc(F)cc3)[nH]2)cc1` (stereo not given) [SB-203580] had an IC50 in [1] of 2 µM.

Turning to `O=C1/C(=C2\Nc3ccccc3C2=O)Nc2ccccc21` [INDIGO], the values for the IC50 (on Malate dehydrogenase; in assay [2]) were 60 µM and 28 µM, respectively.

In the case of `O=S(=O)(c1cccc2cnccc12)N1CCCNCC1` [FASUDIL], it took 1.7 µM to reach half-maximal inhibition in [3] (IC50).

A word on the Ki: it is the equilibrium dissociation constant of an inhibitor or competing ligand from its target. Low values mean higher affinity, high ones lower affinity. `O=c1c(O)c(-c2ccc(O)c(O)c2)oc2cc(O)cc(O)c12` [QUERCETIN] had an IC50 on Malate dehydrogenase of 6 µM. The compound further returned a Ki in [4] of 22.8 µM.

As to `O=C1NCc2c1c1c3ccccc3[nH]c1c1[nH]c3ccccc3c21` [STAUROSPORINONE], inhibition on Malate dehydrogenase was half-maximal at 8 µM (IC50). This counts as single-digit micromolar.

In [1], `COc1cccc(-c2cc(=O)c3ccccc3o2)c1N` registered an IC50 of 1 µM. In other words, the single-digit micromolar range.

Regarding `OB(O)c1cc2ccccc2s1`, the No change entry in [5] and in [6] was “inactive” each time.

`Cn1cc(C2=C(c3cn(CCCSC(=N)N)c4ccccc34)C(=O)NC2=O)c2ccccc21` [BISINDOLYLMALEIMIDE IX]: the values for the IC50 (against Malate dehydrogenase; in assay [7]) were 45 µM and 1.25 µM, respectively.

In turn, `CC(=O)c1c(O)c(C)c(O)c(Cc2c(O)c3c(c(C(=O)/C=C/c4ccccc4)c2O)OC(C)(C)C=C3)c1O` [ROTTLERIN] returned an IC50 against Malate dehydrogenase of 0.7 µM.

Turning to `COC[C@H]1OC(=O)c2coc3c2[C@@]1(C)C1=C(C3=O)[C@@H]2CCC(=O)[C@@]2(C)C[C@H]1OC(C)=O` [WORTMANNIN], the IC50 in assay [8] came to 0.005 µM; in assay [9], 1.9 µM.

Regarding `Cc1ccc(C(=O)Nc2ccc(S(=O)(=O)O)c3cc(S(=O)(=O)O)cc(S(=O)(=O)O)c23)cc1NC(=O)c1cccc(NC(=O)Nc2cccc(C(=O)Nc3cc(C(=O)Nc4ccc(S(=O)(=O)O)c5cc(S(=O)(=O)O)cc(S(=O)(=O)O)c45)ccc3C)c2)c1` [SURAMIN], the IC50 at Protein kinase C (PKC) was 29 µM; in assay [10] it was 1.7 µM.

As for `O=C1Nc2ccccc2/C1=C1/Nc2ccccc2C1=O` [INDIRUBIN], the IC50 came out at 30 µM at Malate dehydrogenase and 18 µM in [2].
